Here are results for eight compounds from PubChem BioAssay (NCI).

Some test systems named below: 786-0 renal; HCT-15 colon; HOP-62 NSCLC; OVCAR-3 ovarian; M14 melanoma; NCI/ADR-RES ovarian; UO-31 renal; SNB-75 CNS; HCT-116 colon; SK-MEL-28 melanoma.
Experiment in all cases: DTP human tumour cell line panel, 48 h

Molecules are shown by their SMILES. Where “and” joins values, the source holds several entries; their conditions need not be identical. Equal values may be shown once.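 Method: 48-hour compound exposure of cells in 96-well plates, five concentrations, linear interpolation of endpoints. Here, GI50 denotes the concentration required for 50% inhibition of growth. TGI marks complete inhibition of growth.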

The GI50 is the concentration giving 50% growth inhibition. As usually defined, the TGI is the concentration at which net growth stops. Low readings indicate more potent growth arrest, high ones less potent growth arrest.

Consider `COc1ccc(-c2cc(-c3cc(OC)c(OC)c(OC)c3)c(C#N)c(N3CCOCC3)n2)cc1O`, for which the GI50 in the test with 786-0 renal is 51.2 µM; with HCT-15 colon, 1.89 µM; in the test with HOP-62 NSCLC it was 33.2 µM; in the test on OVCAR-3 ovarian it was 2.81 µM; in the test on M14 melanoma it was 10.1 µM; with NCI/ADR-RES ovarian, 1.85 µM. The GI50 in the test with UO-31 renal is 11.1 µM; with SNB-75 CNS, 2.2 µM; in the test on HCT-116 colon it was 3.36 µM; with SK-MEL-28 melanoma it was above 21.8 µM. The TGI with 786-0 renal was above 100 µM; with HCT-15 colon, above 60.3 µM; in the test with HOP-62 NSCLC it was above 100 µM; with OVCAR-3 ovarian, 8.33 µM; in the test on M14 melanoma it was above 100 µM; with NCI/ADR-RES ovarian, above 100 µM. The TGI in the test with UO-31 renal was above 100 µM; in the test with SNB-75 CNS, above 25.6 µM; in the test on HCT-116 colon, above 83.1 µM; in the test with SK-MEL-28 melanoma, above 94.8 µM.
`COc1ccc(-c2ccc(/C=N/n3c(C)nn(CN4CCN(C)CC4)c3=S)o2)c([N+](=O)[O-])c1`: the GI50 in the test with 786-0 renal is 39.4 µM; in the test with HCT-15 colon it was 28.7 µM; in the test with HOP-62 NSCLC, 32.9 µM; in the test on OVCAR-3 ovarian it was 16.2 µM; with M14 melanoma, 42.4 µM; in the test on NCI/ADR-RES ovarian it was 21.6 µM. The GI50 with UO-31 renal was above 100 µM; in the test with HCT-116 colon, 21.7 µM; in the test with SK-MEL-28 melanoma, 50 µM. Moreover, the TGI in the test with 786-0 renal was above 100 µM; in the test with HCT-15 colon it was above 100 µM; in the test on HOP-62 NSCLC, above 100 µM; in the test on OVCAR-3 ovarian it was 38.1 µM; with M14 melanoma it was above 100 µM; in the test with NCI/ADR-RES ovarian it was 50.5 µM. For the same compound, the results for the total growth inhibition concentration (TGI) in the test on UO-31 renal, in the test on HCT-116 colon and in the test with SK-MEL-28 melanoma were above 100 µM, 57.8 µM and above 100 µM, respectively.
In the case of `CC(=O)OCC1O[C@@H]([S-])C(OC(C)=O)[C@H](OC(C)=O)[C@@H]1OC(C)=O.[Au+].c1ccc(CN2[CH-]N(Cc3ccccc3)C(c3ccccc3)=C2c2ccccc2)cc1`, the GI50 with 786-0 renal was 1.69 µM; with HCT-15 colon it was 1.47 µM; in the test on OVCAR-3 ovarian, 1.61 µM; in the test on M14 melanoma, 1.69 µM; in the test with NCI/ADR-RES ovarian, 5.21 µM; in the test on UO-31 renal, 1.95 µM. For the same compound, the GI50 is 1.37 µM in the test on SNB-75 CNS, 1.64 µM in the test with HCT-116 colon and 1.64 µM with SK-MEL-28 melanoma. Besides, the TGI is 3.39 µM in the test on 786-0 renal; 2.94 µM in the test with HCT-15 colon; 2.99 µM in the test with OVCAR-3 ovarian; 3.58 µM with M14 melanoma; above 100 µM with NCI/ADR-RES ovarian; 4.47 µM in the test on UO-31 renal. Also, the results for the TGI in the test with SNB-75 CNS, in the test on HCT-116 colon and with SK-MEL-28 melanoma were 2.68 µM, 3.24 µM and 3.21 µM, respectively.
Take `CCC1CCc2nc3sc(C(=O)Nc4ccccc4C)c(N)c3cc2C1` (centres undefined): the GI50 in the test with 786-0 renal was 0.371 µM; in the test with HCT-15 colon it was 0.339 µM; in the test with HOP-62 NSCLC, 0.674 µM; in the test on OVCAR-3 ovarian it was 0.351 µM; with NCI/ADR-RES ovarian, 0.785 µM; in the test with UO-31 renal it was 0.998 µM. The GI50 with SNB-75 CNS is 0.312 µM; in the test with HCT-116 colon, 0.348 µM; in the test with SK-MEL-28 melanoma, 0.623 µM. Further, the TGI with 786-0 renal, in the test with HCT-15 colon, in the test on HOP-62 NSCLC, with OVCAR-3 ovarian, in the test on NCI/ADR-RES ovarian and with UO-31 renal was above 100 µM throughout. Also, the TGI in the test with SNB-75 CNS, in the test on HCT-116 colon and in the test on SK-MEL-28 melanoma was above 100 µM each time.
For `N#Cc1ccc(C(c2ccc(C#N)cc2)n2cncn2)cc1`, the GI50 in the test on 786-0 renal was above 5000 µM; with HCT-15 colon it was above 5000 µM; in the test on HOP-62 NSCLC, 915 µM; in the test with OVCAR-3 ovarian it was above 5000 µM; in the test with M14 melanoma, above 5000 µM; in the test with NCI/ADR-RES ovarian it was above 5000 µM. Besides, the GI50 in the test with UO-31 renal was 60.8 µM and 119 µM; in the test on SNB-75 CNS it was above 5000 µM. The TGI in the test on 786-0 renal, with HCT-15 colon, with HOP-62 NSCLC, in the test on OVCAR-3 ovarian, with M14 melanoma and in the test with NCI/ADR-RES ovarian was above 5000 µM in each case. Also, the total growth inhibition concentration (TGI) with UO-31 renal, in the test on SNB-75 CNS and in the test with SK-MEL-28 melanoma was above 5000 µM each time.
On to `COc1ccc(C(=O)c2cc3c(N)c(C(=O)Nc4cccc(Cl)c4C)sc3nc2C)cc1`, for which the concentration for 50% growth inhibition (GI50) was 0.187 µM in the test on 786-0 renal; 0.101 µM with HCT-15 colon; 0.154 µM with HOP-62 NSCLC; 0.0872 µM with OVCAR-3 ovarian; 0.0715 µM in the test with M14 melanoma; 0.086 µM with NCI/ADR-RES ovarian. The GI50 with UO-31 renal was 0.634 µM; with HCT-116 colon, 0.0989 µM; with SK-MEL-28 melanoma, above 25 µM. In addition, the TGI in the test on 786-0 renal, in the test on HCT-15 colon, in the test with HOP-62 NSCLC, with OVCAR-3 ovarian, with M14 melanoma and with NCI/ADR-RES ovarian was above 25 µM throughout. Further, the TGI in the test with UO-31 renal, with HCT-116 colon and with SK-MEL-28 melanoma was above 25 µM throughout.
For the compound `C=C(C)[C@@H]1CC[C@]2(COC3CCCCO3)CC[C@]3(C)[C@H](CC[C@@H]4[C@@]5(C)C=C(C=O)C(=O)C(C)(C)[C@@H]5CC[C@]43C)[C@@H]12` (some centres undefined), the GI50 in the test with 786-0 renal is 1.65 µM; with HCT-15 colon, 1.77 µM; in the test on HOP-62 NSCLC, 1.75 µM; in the test on OVCAR-3 ovarian, 1.14 µM; with M14 melanoma it was 1.34 µM; with NCI/ADR-RES ovarian it was 3.16 µM. Also, the values for the GI50 with UO-31 renal, in the test on HCT-116 colon and in the test on SK-MEL-28 melanoma were 1.36 µM, 1.31 µM and 0.734 µM, respectively. The TGI is 3.09 µM with 786-0 renal; 3.97 µM in the test on HCT-15 colon; 3.19 µM in the test with HOP-62 NSCLC; 2.49 µM in the test on OVCAR-3 ovarian; 3.01 µM with M14 melanoma; 26.9 µM in the test with NCI/ADR-RES ovarian. Further, the results for the TGI in the test with UO-31 renal, in the test on HCT-116 colon and with SK-MEL-28 melanoma were 2.74 µM, 2.59 µM and 2.2 µM, respectively.
`O=C1/C(=C/c2ccccc2)CN(C(=O)OCc2ccccc2)C/C1=C\c1ccccc1`: the TGI is 18.5 µM in the test on 786-0 renal; 20.8 µM with HCT-15 colon; 39.9 µM with HOP-62 NSCLC; 10 µM in the test with OVCAR-3 ovarian; 16.7 µM in the test on M14 melanoma; 24 µM with UO-31 renal. For the same compound, the TGI was above 31.6 µM with SNB-75 CNS; 1.63 µM and 2.63 µM in the test with HCT-116 colon; 32.8 µM in the test on SK-MEL-28 melanoma. Besides, the GI50 with HCT-15 colon was 4.01 µM; in the test with M14 melanoma, 5.89 µM; in the test on HCT-116 colon it was 0.484 µM.
